These results are taken from patent US20250154154A1 (Relay Binney Street, 2nd Floor, priority 2020, published 2025).

pIC50: −log10 of the molar value.

Assay [1] deals with phospho-S6RP (Ser 235/236) in RBE cells. The experiment in a line: Cellular Proliferation Protocol (cellular phospho-S6RP HTRF), RBE cells. It counts as cell-based. As to conditions: 6 hours treatment, RBE or SNU-1079 cells, cell line not given. How it is done:
Cellular Proliferation Protocol
Cellular phospho-S6RP (Ser 235/236) was measured using a Fluorescence Resonance Energy Transfer (FRET) sandwich assay format (Cisbio HTRF Cat. No. 64RP6PEG). This format uses 2 different, labelled antibodies (Eu^3+-Cryptate donor and d2 acceptor) that positively modulate a specific signal in proportion to phospho-S6RP (Ser 235/236) directly in cells. RBE or SNU-1079 cells were cultivated in T-75 flasks at 37° C., 5% CO2, 95% relative humidity in RPMI 1640 medium with 10% FBS and 1% Penicillin/Streptomycin and detached with trypsin/EDTA at 80-90% confluency. Cells were then seeded in 40 μL volume per well in 384-well flat-bottom polystyrene microplates (Corning Cat. No. 3570) at a seeding density of 2000 cells/well for RBE and 3000 cells/well for SNU-1079 followed by 24 hour incubation at 37° C., 5% CO2, 95% relative humidity. On the next day, compounds were diluted to […] the indicated concentrations and 40 nL of these treatment compounds, along with DMSO vehicle control, were added to the cells (final concentration of compounds is then the indicated concentrations). Treatment was carried out for 6 hours at 37° C., 5% CO2, 95% relative humidity after which the plates were cooled to room temperature before aspirating the medium. Cells were then lysed on a shaker for 45 minutes at room temperature with 20 μL of 1× supplemented lysis buffer per well. After lysis, 5 μL of pre-mixed antibodies was added per well. Plates were covered with black sealing film and incubated overnight at room temperature on a shaker before being read on a PerkinElmer EnVision microplate reader. Percent activation was calculated relative to DMSO control and IC50 values were obtained from dose-response data fitted to a 4-parameter curve.
For orientation: Time-resolved FRET reads energy transfer from a long-lived donor to a nearby acceptor.

The target in assay [2] is SRC (Homo sapiens, UniProt P12931). Kind of assay: SRC Biochemical Assay Protocol (microfluidic mobility shift assay, FLPeptide4 substrate). In short, it runs like this:
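Mobility-shift readout of phosphorylated FLPeptide4 (1.5 μM) after 90 min kinase reaction with 50 μM ATP and 0.26 nM SRC in pH 7.4 HEPES buffer. Compounds, tested 0.0017–100 μM, were preincubated 30 min with enzyme and peptide; IC50 from 4-parameter logistic fit versus neutral controls.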

For assay [3], the system named is RBE cells. Kind of assay: Cell Viability Protocol (CellTiterGlo), RBE cells. Type of assay: cell-based. As to conditions: RBE or SNU-1079 cells, 72 or 120 hour, cell line and time not given. In short, it runs like this:
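After 72 h or 120 h compound exposure at 37° C, viability was read by CellTiterGlo as % of DMSO vehicle, with IC50 fitted by a 4-parameter curve. Cells had been seeded at 1200/well in 10% FBS RPMI 1640 and allowed 24 h before dosing.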

Usually pIC50 stands for the IC50 on a negative log10 scale, so that one unit is a factor of ten. For the molecule `C=CC(=O)N1CC[C@@H](N2CC(C#Cc3c(-c4ccc(Cl)c(CF)c4)c4c(N)ncnc4n3C)C2)[C@@H](O)C1` [II-58], the pIC50 in assay [1], in assay [2] and in assay [3] was 6.00 to 8.00 throughout.
Turning to “1-(4-(3-((4-amino-5-(3-ethoxy-4-phenoxyphenyl)-7-methyl-7H-pyrrolo[2,3-d]pyrimidin-6-yl)ethynyl)azetidin-1-yl)piperidin-1-yl)prop-2-en-1-one [II-36]”, the pIC50 in assay [1], in assay [2] and in assay [3] was 6.00 to 8.00 throughout.
As for `C=CC(=O)N1CCC(N2CC(C#Cc3c(-c4ccc(Oc5ccccc5)cc4)c4c(N)ncnc4n3[C@@H](C)CO)C2)CC1` [II-169, (S)-1-(4-(3-((4-amino-7-(1-hydroxypropan-2-yl)-5-(4-phenoxyphenyl)-7H-pyrrolo[2,3-d]pyrimidin-6-yl)ethynyl)azetidin-1-yl)piperidin-1-yl)prop-2-en-1-one], the results for the pIC50 in assay [1] (6 h), in assay [2] and in assay [3] were at least 8.00, 6.00 to 8.00 and at least 8.00, respectively.
On to `C=CC(=O)N1CCC(N2CC(C#Cc3c(-c4ccc(Oc5cccc(C)n5)cc4)c4c(N)ncnc4n3C)C2)C[C@H]1CO` (stereo partly drawn) [II-199, 1-((2S)-4-(3-((4-amino-7-methyl-5-(4-(6-methylpyridin-2-yloxy)phenyl)-7H-pyrrolo[2,3-d]pyrimidin-6-yl)ethynyl)azetidin-1-yl)-2-(hydroxymethyl)piperidin-1-yl)prop-2-en-1-one], for which the pIC50 in assay [1] (6 h), in assay [2] and in assay [3] was at least 8.00 throughout.
Take `C=CC(=O)N1CC[C@@H](N2CC(C#Cc3c(-c4cccc5c4cnn5C)c4c(N)ncnc4n3C)C2)[C@@H](O)C1` [II-63, 1-((3S,4R)-4-(3-((4-amino-7-methyl-5-(1-methyl-1H-indazol-4-yl)-7H-pyrrolo[2,3-d]pyrimidin-6-yl)ethynyl)azetidin-1-yl)-3-hydroxypiperidin-1-yl)prop-2-en-1-one]: the pIC50 in assay [1] (6 h), in assay [2] and in assay [3] was 5.00 to 6.00 in each case.
As to `C=CC(=O)NC1(C(=O)N2CCC(C#Cc3c(-c4ccc(Oc5ccccc5)cc4)c4c(N)ncnc4n3C)CC2)CN(C)C1` [II-196, N-(3-(4-((4-amino-7-methyl-5-(4-phenoxyphenyl)-7H-pyrrolo[2,3-d]pyrimidin-6-yl)ethynyl)piperidine-1-carbonyl)-1-methylazetidin-3-yl)acrylamide], the negative logarithm of the IC50 (pIC50) in assay [1] (6 h) is at least 8.00; in assay [2], 6.00 to 8.00; in assay [3], at least 8.00.
On to `C=CC(=O)N1CC[C@@H](N2CC(C#Cc3c(-c4ccc(OC5(C)CC5)cc4)c4c(N)ncnc4n3C)C2)[C@@H](O)C1` [II-16], for which the pIC50 was 6.00 to 8.00 in assay [1] (6 h), 5.00 to 6.00 in assay [2] and 6.00 to 8.00 in assay [3].
Take `C=CC(=O)N1CC[C@@H](N2CC(C#Cc3c(-c4ccc(Cl)c(OC)c4)c4c(N)ncnc4n3CCOC)C2)[C@@H](O)C1` [II-56]: the pIC50 in assay [1], in assay [2] and in assay [3] was 6.00 to 8.00 throughout.
For `C=CC(=O)N1CC(N2CCC(C#Cc3c(-c4ccc(Oc5ccccc5)cc4)c4c(N)ncnc4n3C(C)C)CC2)C1` [Example I-45], the pIC50 in assay [1] (6 h), in assay [2] and in assay [3] was at least 8.00 in each case.
`C=CC(=O)N1CC[C@H](N2CC(C#Cc3c(-c4ccc(Oc5ccccc5)cc4)c4c(N)ncnc4n3C)C2)[C@@H](O)C1` [II-221, 1-((3S,4S)-4-(3-((4-amino-7-methyl-5-(4-phenoxyphenyl)-7H-pyrrolo[2,3-d]pyrimidin-6-yl)ethynyl)azetidin-1-yl)-3-hydroxypiperidin-1-yl)prop-2-en-1-one]: the pIC50 in assay [1] (6 h), in assay [2] and in assay [3] was at least 8.00 each time.
As for `C=CC(=O)N[C@H](C)C(=O)N1CCC(C#Cc2c(-c3ccc(Oc4ccccc4)cc3)c3c(N)ncnc3n2[C@H]2CCOC2)CC1` [II-185, N-((R)-1-(4-((4-amino-5-(4-phenoxyphenyl)-7-((S)-tetrahydrofuran-3-yl)-7H-pyrrolo[2,3-d]pyrimidin-6-yl)ethynyl)piperidin-1-yl)-1-oxopropan-2-yl)acrylamide], the negative-log IC50 (pIC50) in assay [1] (6 h) was 5.00 to 6.00; in assay [2], 6.00 to 8.00; in assay [3], 5.00 to 6.00.
On to `C=CC(=O)N1CC[C@@H](N2CC(C#Cc3c(-c4ccc(Cl)c(OC)c4)c4c(N)ncnc4n3C(C)C)C2)[C@@H](O)C1` [II-55], for which the values for the pIC50 in assay [1], in assay [2] and in assay [3] were at least 8.00, at least 8.00 and 6.00 to 8.00, respectively.
With `C=CC(=O)N1CCC(N2CC(C#Cc3c(-c4ccc(Br)c(OC)c4)c4c(N)ncnc4n3C(C)C)C2)CC1` [II-161, 1-(4-(3-((4-amino-5-(4-bromo-3-methoxyphenyl)-7-isopropyl-7H-pyrrolo[2,3-d]pyrimidin-6-yl)ethynyl)azetidin-1-yl)piperidin-1-yl)prop-2-en-1-one], the pIC50 in assay [1] (6 h) was 6.00 to 8.00; in assay [2], at least 8.00; in assay [3], 6.00 to 8.00.
For `COc1cc(Oc2ccccn2)ccc1-c1c(C#C[C@@H]2[C@H]3CN(C(=O)/C=C/CN(C)C)C[C@@H]23)n(C)c2ncnc(N)c12` [II-227, (E)-1-((1R,5S,6s)-6-((4-amino-5-(2-methoxy-4-(pyridin-2-yloxy)phenyl)-7-methyl-7H-pyrrolo[2,3-d]pyrimidin-6-yl)ethynyl)-3-azabicyclo[3.1.0]hexan-3-yl)-4-(dimethylamino) but-2-en-1-one], the pIC50 in assay [1] (6 h), in assay [2] and in assay [3] was 6.00 to 8.00 throughout.
For the molecule `C=CC(=O)N1CC[C@@H](N2CC(C#Cc3c(-c4ccc(OC)cc4)c4c(N)ncnc4n3C)C2)[C@@H](O)C1` [II-25], the pIC50 in assay [1], in assay [2] and in assay [3] was 6.00 to 8.00 each time.
On to `C/C=C/S(=O)(=O)N1CCC(N2CC(C#Cc3c(-c4ccc(Oc5ccccc5)cc4)c4c(N)ncnc4n3C)C2)CC1` [II-177, (E)-7-methyl-5-(4-phenoxyphenyl)-6-((1-(1-(prop-1-enylsulfonyl)piperidin-4-yl)azetidin-3-yl)ethynyl)-7H-pyrrolo[2,3-d]pyrimidin-4-amine], for which the pIC50 in assay [1] (6 h), in assay [2] and in assay [3] was 6.00 to 8.00 each time.
Consider `C=CC(=O)N1CCC(N2CC(C#Cc3c(-c4ccc(Oc5cccc(C)n5)c(OC)c4)c4c(N)ncnc4n3C)C2)CC1` [II-81], for which the negative logarithm of the IC50 (pIC50) in assay [1], in assay [2] and in assay [3] was 6.00 to 8.00 in each case.
For `C=CC(=O)N1CCC(N2CC(C#Cc3c(-c4ccc(C(F)(F)F)cc4)c4c(N)ncnc4n3C)C2)CC1` [II-102], the pIC50 in assay [1], in assay [2] and in assay [3] was 6.00 to 8.00 each time.
With `C=CC(=O)N1CC[C@@H](N2CC(C#Cc3c(-c4ccc(OC5CC5)c(OC)c4)c4c(N)ncnc4n3C)C2)[C@@H](O)C1` [II-68], the pIC50 in assay [1] is 6.00 to 8.00; in assay [2], 5.00 to 6.00; in assay [3], 5.00 to 6.00.
With `C=CC(=O)N1CCC(C#Cc2c(-c3ccc(Oc4ccccc4)cc3)c3c(N)ncnc3n2C(C)C(=O)OC)CC1` (stereo not drawn) [Example I-42], the negative-log IC50 (pIC50) in assay [1] (6 h), in assay [2] and in assay [3] was 6.00 to 8.00 in each case.
For `C=CC(=O)N1CCC(O)(C#Cc2c(-c3ccc(Oc4ccccc4)cc3)c3c(N)ncnc3n2C(C)C)CC1` [Example I-25], the pIC50 in assay [1] (6 h), in assay [2] and in assay [3] was at least 8.00 each time.
Turning to `C=CC(=O)N[C@@H](CO)C(=O)N1CCC(C#Cc2c(-c3ccc(Oc4ccccc4)cc3)c3c(N)ncnc3n2C)CC1` [II-198], the pIC50 in assay [1] (6 h), in assay [2] and in assay [3] was at least 8.00 throughout.
Turning to `C=CC(=O)N1CCC(N2CC(C#Cc3c(-c4ccc5c(c4)N(C)CCO5)c4c(N)ncnc4n3C)C2)CC1` [II-107], the pIC50 in assay [1], in assay [2] and in assay [3] was 5.00 to 6.00 throughout.
Regarding `C=CC(=O)N1CC[C@@H](N2CC(C#Cc3c(-c4ccc(Cl)c(OC)n4)c4c(N)ncnc4n3C)C2)[C@@H](F)C1` [II-320], the pIC50 in assay [1], in assay [2] and in assay [3] was 6.00 to 8.00 each time.
In the case of `C=CC(=O)N1CCC(N2CC(C#Cc3c(-c4cccc5c4OCO5)c4c(N)ncnc4n3CC)C2)CC1` [II-119], the pIC50 in assay [1] was 6.00 to 8.00; in assay [2], at least 8.00; in assay [3] it was 6.00 to 8.00.
